Assay results as given in publication PMC8558867, “Development of BromoTag: A “Bump-and-Hole”–PROTAC System to Induce Potent, Rapid, and Selective Degradation of Tagged Target Proteins” (Journal of Medicinal Chemistry, 2021).

Biological target: T1, VHL with Brd4^BD2 L387A (Homo sapiens, UniProt O60885+P40337, L387A)
T1 construct: N-terminally His6-tagged VHL (54–213); His6 (N, cleaved yes); made in house; host or cells: E. coli
Test: FP competitive binding assay, ternary complex binding (compound preincubated with Brd4^BD2 L387A)

CC[C@@H](C(=O)OCCOCCOCCOCC(=O)N[C@H](C(=O)N1C[C@H](O)C[C@H]1C(=O)NCc1ccc(-c2scnc2C)cc1)C(C)(C)C)[C@@H]1N=C(c2ccc(Cl)cc2)c2c(sc(C)c2C)-n2c(C)nnc21 [AGB1 (46), (S)-13-((2S,4R)-4-Hydroxy-2-((4-(4-methylthiazol-5-yl)benzyl)carbamoyl)pyrrolidine-1-carbonyl)-14,14-dimethyl-11-oxo-3,6,9-trioxa-12-azapentadecyl (R)-2-((S)-4-(4-chlorophenyl)-2,3,9-trimethyl-6H-thieno[3,2-f][1,2,4]triazolo[4,3-a][1,4]diazepin-6-yl)butanoate]
α (FP binding) (cooperativity, Kd binary/Kd ternary, supplementary CSV): 11.1
Kd (preincubated with Brd4^BD2 L387A, mean ±S.E.M., N = 4, read-out: ternary binding affinity Kd): 11 nM
cooperativity (α) (α = Kd binary/Kd ternary): 11.1
